Test results: patent US20140147848A1 (UNIVERSITY OF TSUKUBA, priority 2012, published 2014)
Like-named read-outs stand apart in the source and are kept apart here.

Tests used:
[1] = tested on: Calreticulin (CALR); assay: Real-time PCR, CALR expression in Caco-2 cells; conditions: LAS 60 ppm
Method: (§2) Caco-2 cells treatment and RNA extraction: Caco-2 cells were seeded at 2×10^5 cells/ml density in Petri dishes. […] Total RNA was then purified using the ISOGEN kit (Nippon GeneCo Ltd., Japan) following the manufacturer's instructions.
(§3) cDNA synthesis: Total RNA was quantified using the Thermo scientific Nanodrop 2000 (USA), and reverse transcription reactions were performed using the Superscript III reverse transcriptase kit (Invitrogen, Carlsbad, Calif.) using 1 μg of total RNA. Briefly, RNA was denatured by incubation at 65° C. for 5 min, with 1 μL oligo (dT) primers, and chilled at 4° C. SuperScript III reverse transcriptase was then added and the reaction mix was incubated at 42° C. for 60 min, and then for 10 min at 70° C.
Real-time PCR: The expression of TPM3, THIO, CALR and HSP7C, respectively, in treated Caco-2 cells was determined by real-time PCR using glyceraldehyde 3-phosphate dehydrogenase (GAPDH) as an internal positive control. Oligos for TPM3 (Hs01900726_g1), THIO (Hs01555212_g1), CALR (Hs00189032_m1), HSP7C (Hs03045200_g1) and GAPDH (Hs02758991_g1) were inventoried gene expression assays (see Table 5). TaqMan real-time PCR amplification reactions were performed in a 20 μl reaction mixtures containing: 10 μl of TaqMan Universal PCR Master Mix UNG (2×), 9 μl of template cDNA (100 ng μl^−1) and 1 μl of the corresponding primer/probe mix, using an AB 7500 fast real-time system (Applied Biosystems). For the amplification, the following cycling conditions were applied: 2 min at 50° C., 10 min at 95° C., and 40 cycles of 15 s at 95° C./1 min at 60° C.

[2] = tested on: Caco-2 cells
Method: Cells were then harvested by centrifugation, where the supernatant was discarded and the pellet was resuspended in 1 ml of PBS. Genomic DNA was then purified using commercial DNA purification kit from QIAGEN. 1 μg of DNA sample was added to 2 μl of loading buffer (Wako) and then loaded onto a 2% agarose gel. The electrophoresis was carried out at a constant voltage of 100 V for 20 min and the DNA was finally observed under ultraviolet illumination after staining with ethidium bromide.

[3] = tested on: Caco-2 cells; conditions: LAS 60 ppm
Method: (§1) Note that in all figures asterisks represent the significance of the difference compared to the control, e.g., * for p value<0.05 and ** for p value<0.01.
The determination of intracellular ROS was performed using the OxiSelect™ Intracellular ROS Assay Kit, from CELL BIOLABS, INC., according to the manufacturer's protocol. Briefly, Caco-2 cells were cultured in a 96-well plate for 24 h, and then pre-incubated for 60 min with DCFH-DA. […] After a different incubation times of, for example, 1 h, 3 h, 6 h, and 12 h, the fluorescence was read using a plate reader at 480 nm/530 nm excitation/emission wavelengths. The ROS content was determined by comparison with the predetermined DCF standard curve.

[4] = tested on: Caco-2 cells; remark: listed apart in the source
Method: Specifically, Caco-2 cells were treated with concentrations of 0, 1 ppm, 5 ppm, 50 ppm, 60 ppm, and 70 ppm and analyzed by an MTT assay at 24 h, 48 h, and 72 h post-treatment.
The human colon adenocarcinoma cell line Caco-2 was kindly provided by Dr. Makoto Shimizu of the University of Tokyo, Japan. Caco-2 cells were cultured in Dulbecco's modified Eagle's medium (DMEM; Sigma) supplemented with 10% fetal calf serum (FCS), 1% nonessential amino acids (NEAA) and 1% Penicillin/Streptomycin (5 mg/ml each), and incubated in a 95% air and 5% CO2 atmosphere at 37° C. The cells were sub-cultured at a split ratio of 1:3 every 2 days.
Cell viability was assessed using a conventional MTT reduction assay. […] At the respective time points, 10 μl of MTT stock solution (5 mg/ml) was added to the culture medium and incubated for 6 h at 37° C. The formazan was extracted with 100 μl 10% SDS (W/V), and the absorbance was measured with a microliter plate reader at 570 nm wavelength.

[5] = tested on: Tropomyosin alpha-3 chain (TPM3); assay: Real-time PCR, TPM3 expression in Caco-2 cells; conditions: LAS 60 ppm
Method: as §2, §3
Real-time PCR: The expression of TPM3, THIO, CALR and HSP7C, respectively, in treated Caco-2 cells was determined by real-time PCR using glyceraldehyde 3-phosphate dehydrogenase (GAPDH) as an internal positive control. […] TaqMan real-time PCR amplification reactions were performed in a 20 μl reaction mixtures containing: 10 μl of TaqMan Universal PCR Master Mix UNG (2×), 9 μl of template cDNA (100 ng μl^−1) and 1 μl of the corresponding primer/probe mix, using an AB 7500 fast real-time system (Applied Biosystems). For the amplification, the following cycling conditions were applied: 2 min at 50° C., 10 min at 95° C., and 40 cycles of 15 s at 95° C./1 min at 60° C.

[6] = tested on: Caco-2 cells; conditions: 5 ppm and 60 ppm LAS, 24 hours, vs control
Method: Total protein was extracted from all three populations 24 hours after treatment, as described in detail below. […] The labeled spots (i.e., the differentially expressed proteins) were chosen based on the results of software analysis designed to assess the respective fold changes of protein levels in the each of the respective spots.
Caco-2 cells were seeded at 2×10^5 cells/ml density in Petri dishes. […] The cells were rinsed three times with ice-cold PBS, scraped gently, and collected in PBS. […] After desalting the protein was extracted using Amicon Ultra centrifugal filters (Ultracel-10K membrane) from Millipore, and the final protein amount was determined using the 2-D Quant kit (GE Healthcare).
The first dimension electrophoresis was carried out on an Ettan IPGphor II (GE Healthcare) apparatus. […] The destained gels were then scanned at 300 dpi resolution, and the images were analyzed with Image Master™ 2D software (ver. 4.9: GE Healthcare). For statistical quantification, three experiments were performed for each experiment. […] Spots were expressed as percentages (% vol) of relative volumes by integrating the value of each pixel in the spot area as described previously in our study (see, e.g., Han et al. 2010). […]

[7] = tested on: Thioredoxin (THIO); conditions: LAS 60 ppm
Description: as §1

[8] = tested on: Caco-2 monolayer
Method: TEER measurements were obtained by growing the cells at a density of 2·10^5 cells/cm^2 in 6.5-mm diameter collagen coated Transwell (0.4 μm PTFE membrane) on 24-well plates. The medium was changed every 2 days, and the cells were cultured for 12 days to establish monolayer integrity. TEER measurements were performed according to the method of Hashimoto et al. (1997). After a 12-day culture period, the cell monolayer was rinsed with PBS.

[9] = tested on: Caco-2 cells; remark: listed apart in the source
[10] = tested on: Heat shock cognate 71 kDa protein (HSP7C); conditions: LAS 60 ppm, 12 hours after exposure
Method: as §2, §3
Real-time PCR: The expression of TPM3, THIO, CALR and HSP7C, respectively, in treated Caco-2 cells was determined by real-time PCR using glyceraldehyde 3-phosphate dehydrogenase (GAPDH) as an internal positive control. […] TaqMan real-time PCR amplification reactions were performed in a 20 μl reaction mixtures containing: 10 μl of TaqMan Universal PCR Master Mix UNG (2×), 9 μl of template cDNA (100 ng μl^−1) and 1 μl of the corresponding primer/probe mix, using an AB 7500 fast real-time system (Applied Biosystems). […]

[11] = tested on: Caco-2 cells; remark: listed apart in the source
Method: Caspase assay was performed using Immunochemistry Technologies, LLC's Apoptosis detection kit, according to the manufacturer's protocol. […] After treatment, approximately 290-300 μl of each cell suspension was transferred to sterile tubes (e.g., cell density should be around 1×10^7 cells/ml). 10 μl of 30×FLICA solution was added directly to the 290-300 μl cell suspensions, and then incubate cells for 1 hour at 37° C. under 5% CO2, protecting the tubes from light. 2 ml of 1× wash buffer was added to each tube. The tubes were then mix and centrifuge cells at <400×g for 5 minutes at room temperature (RT). The supernatant was carefully remove and discard. The cell pellet was resuspended in 1 ml 1× wash buffer, and the cells were centrifuged again at <400×g for 5 minutes at RT. The supernatant was carefully removed and discarded. The cells were resuspended in 400 μl PBS, about 100 μl of the cell suspensions was placed into each of 2 wells of a black microplate. Finally the fluorescence intensity of sulforhodamine (excitation 550 nm, emission 595 nm) was measured and used a fluorescence plate reader.

With sodium dodecylbenzenesulfonate [LAS] the “CALR expression relative to control” value ([1]; 3 hours post-treatment) was “about 1.6 fold”, the “CALR expression relative to control” value ([1]; 12 hours post-treatment) was “decreased to baseline levels” and the “CALR expression relative to control” value ([1]; 24 hours after exposure) was “once again overexpressed”. The DNA fragmentation [2] was “no DNA fragmentation was observed”, the ROS production ([3]; 12 hours post-treatment) was “returned to baseline levels (or lower)” and the ROS production ([3]; within the first 6 hours after treatment) was “significant ROS production”. For the same substance, the “cytotoxic effect on Caco-2 cells (MTT)” value ([4]; 0-70 ppm LAS, 24 h, 48 h, 72 h post-treatment) was “strong cytotoxic effect”, the “cytotoxic effect on Caco-2 cells (MTT)” value ([4]; LAS 5 ppm) was “no obvious cytotoxic effect” and the “TPM3 overexpression relative to the control” value ([5]; 3 hours) was 1.2 fold. For the same substance, the “TPM3 overexpression relative to the control” value ([5]; 6 hours post-exposure) was “slightly below that of the control”, the “TPM3 overexpression relative to the control” value ([5]; after 6 hours (time not given)) was roughly 1.05 fold and the “change in protein expression, spots 1, 2, 4, 5, 7, 8, 9, 10, and 12” value [6] was “up-regulation”. The “change in protein expression, spots 3, 6, 11, and 13” value [6] was “down-regulation”, the “THIO overexpression relative to the control” value ([7]; 3 hours) was 1.4 fold and the “THIO overexpression relative to the control” value ([7]; 6 hours) was 1.4 fold. The “THIO overexpression relative to the control” value ([7]; 12 hours) was “about 1.3 fold”, the “THIO overexpression relative to the control” value ([7]; 24 hours) was “about 1.1 fold” and the “relative electrical resistance (TEER)” value ([8]; 5, 10, 30, and 60 ppm LAS over time) was “decreased with increasing concentration of LAS”. The “time to decrease in barrier function efficiency” value ([8]; higher concentrations of LAS) was no more than 30 min, the intracellular calcium concentration ([9]; 3 and 6 hours post-treatment) was “decrease of the intracellular calcium concentration” and the intracellular calcium concentration ([9]; 12 hours, continuing until 24 hours post-treatment) was “excessive increase of the intracellular calcium concentration”. For the same substance, the “HSP7C expression relative to control” value [10] was “significantly overexpressed” and the “cell death pathway (caspase assay)” value [11] was “non-apoptotic pathway”.
